Measurements: the supplement of paper PMC10307832

Experiments:
Experiment in all cases: relative viability (nuclei count vs DMSO), 5 days (fraction); higher = more cells survive
[1] = compound: CC1=CC=C(C=C1)C(=O)CN2C3=C(CCCC3)SC2=N [Pifithrin_alpha] + Cc1nc(NC(=O)N2CCC[C@H]2C(N)=O)sc1-c1ccnc(C(C)(C)C(F)(F)F)c1 [Alpelisib] (partner 2 µM)
Procedure, shortened: (§1)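 Lung cancer cell lines were pin-tool dosed in 1536-well plates on the day after seeding, with either a lone drug or a fixed anchor-drug dose plus five library-drug doses (not always all listed) in √10 steps. Nuclei were counted on 4× images after 5 days. Relative viability is the ratio of treated-well to vehicle-well nuclei counts, with each value a median of duplicate plates.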

[2] = compound: CC1=CC=C(C=C1)C(=O)CN2C3=C(CCCC3)SC2=N [Pifithrin_alpha] + O=C(c1cc(Cc2n[nH]c(=O)c3ccccc23)ccc1F)N1CCN(C(=O)C2CC2)CC1 [Olaparib] (partner 8 µM)
Procedure, shortened: as §1

Axitinib + Trametinib = compound: CNC(=O)c1ccccc1Sc1ccc2c(/C=C/c3ccccn3)n[nH]c2c1 [Axitinib] + CC(=O)Nc1cccc(-n2c(=O)n(C3CC3)c(=O)c3c(Nc4ccc(I)cc4F)n(C)c(=O)c(C)c32)c1 [Trametinib] (partner 0.02 µM)
Procedure, shortened: as §1

Axitinib + Lapatinib = compound: CNC(=O)c1ccccc1Sc1ccc2c(/C=C/c3ccccn3)n[nH]c2c1 [Axitinib] + CS(=O)(=O)CCNCc1ccc(-c2ccc3ncnc(Nc4ccc(OCc5cccc(F)c5)c(Cl)c4)c3c2)o1 [Lapatinib] (partner 2 µM)
Procedure, shortened: as §1

Cell Line | relative viability ([1]; first compound 1 µM) | relative viability ([1]; first compound 3.162 µM) | relative viability ([1]; first compound 10 µM) | relative viability ([1]; first compound 100 µM) | relative viability ([2]; first compound 1 µM) | relative viability ([2]; first compound 3.162 µM) | relative viability ([2]; first compound 10 µM) | relative viability ([2]; first compound 100 µM) | relative viability (Axitinib + Trametinib; first compound 0.005 µM) | relative viability (Axitinib + Trametinib; first compound 0.01581 µM) | relative viability (Axitinib + Trametinib; first compound 0.05 µM) | relative viability (Axitinib + Trametinib; first compound 0.1581 µM) | relative viability (Axitinib + Trametinib; first compound 0.5 µM) | relative viability (Axitinib + Lapatinib; first compound 0.005 µM) | relative viability (Axitinib + Lapatinib; first compound 0.01581 µM) | relative viability (Axitinib + Lapatinib; first compound 0.05 µM) | relative viability (Axitinib + Lapatinib; first compound 0.1581 µM) | relative viability (Axitinib + Lapatinib; first compound 0.5 µM) | relative viability ([1]; first compound 31.62 µM) | relative viability ([2]; first compound 31.62 µM)
COR-L23 | 0.857 | 0.849 | 0.931 | 0.663 | 0.262 | 0.306 | 0.267 | 0.269 | 0.693 | 0.623 | 0.785 | 0.527 | 0.656 | 0.975 | 0.963 | 1.12 | 0.808 | 1.12 |  | 
COR-L 105 | 0.948 | 0.909 | 0.902 | 0.768 | 0.489 | 0.426 | 0.477 | 0.447 | 0.478 | 0.414 | 0.446 | 0.452 | 0.466 | 0.355 | 0.357 | 0.328 | 0.381 | 0.38 | 0.683 | 0.425
EKVX | 0.918 | 0.743 | 0.567 | 0.548 | 0.825 | 0.685 | 0.531 | 0.336 | 0.286 | 0.29 | 0.347 | 0.323 | 0.406 | 0.178 | 0.226 | 0.222 | 0.216 | 0.183 | 0.583 | 0.266
EMC-BAC-2 | 0.719 | 0.776 | 0.738 | 0.822 | 0.419 | 0.412 |  | 0.351 | 0.952 | 0.905 | 0.898 | 0.926 | 0.88 | 0.917 | 0.869 | 0.947 | 0.915 | 0.803 | 0.56 | 0.252
EPLC-272H |  | 0.965 | 0.914 | 1.02 | 0.762 | 0.585 | 0.72 | 0.467 | 0.312 | 0.273 | 0.255 | 0.249 | 0.289 | 0.97 | 0.889 | 0.906 | 0.975 | 0.94 | 0.934 | 0.425
H3255 | 0.587 | 0.739 | 0.692 | 0.593 | 0.603 | 0.562 | 0.53 | 0.485 | 0.573 |  | 0.551 | 0.486 | 0.558 | 0.272 | 0.241 | 0.244 | 0.263 | 0.239 | 0.403 | 0.44
HARA | 0.757 | 0.794 | 0.856 | 0.519 | 0.659 | 0.931 | 1 | 0.808 | 0.727 | 0.707 | 0.768 | 0.618 | 0.949 | 0.63 | 0.593 | 0.718 | 0.621 | 0.602 | 0.638 | 0.305
HCC-15 | 0.948 | 0.902 | 0.833 | 0.839 | 0.733 | 0.867 | 0.697 | 0.581 | 0.403 | 0.417 | 0.378 | 0.372 | 0.383 | 0.884 | 0.872 | 0.831 | 0.836 | 0.848 | 0.659 | 0.368
HCC-44 | 0.681 | 0.699 | 0.715 | 0.591 | 0.918 | 0.877 | 0.818 | 0.627 | 1.05 | 1.1 | 1.05 | 1.06 | 1.03 | 1.08 | 1.02 | 1.01 | 1.09 | 1.01 | 0.453 | 0.553
HCC-78 | 0.295 | 0.337 | 0.352 | 0.296 |  | 0.925 | 0.785 | 0.683 | 0.955 | 0.683 | 0.518 | 0.615 | 0.986 | 0.865 | 0.724 | 0.642 | 0.701 | 0.47 |  | 0.51
HCC-366 | 0.282 | 0.3 | 0.329 | 0.234 | 0.344 | 0.238 | 0.299 | 0.209 | 0.415 | 0.417 | 0.391 | 0.359 | 0.333 | 0.99 | 0.961 | 1.09 | 1.03 | 1.16 |  | 
HCC-827 | 0.878 | 1.03 | 0.919 | 0.823 | 0.248 | 0.672 | 0.715 | 0.648 | 0.572 | 0.519 | 0.552 | 0.548 | 0.518 | 0.209 | 0.169 | 0.138 | 0.186 | 0.212 | 0.626 | 0.355
HOP-62 | 1.18 | 1.1 | 0.848 | 0.931 | 0.524 | 0.635 | 0.446 | 0.65 | 0.404 | 0.351 | 0.404 | 0.431 | 0.454 | 0.891 | 0.883 | 1.01 | 0.863 | 1.06 | 0.62 | 0.127
LC-2-ad | 0.898 | 0.799 | 0.791 | 0.682 | 0.756 | 0.739 | 0.683 | 0.555 | 0.953 | 0.864 | 0.885 | 0.873 | 0.871 | 0.935 | 0.99 | 1.06 | 0.985 | 1.03 | 0.56 | 0.444
LCLC-97TM1 |  | 0.226 | 0.224 | 0.236 |  | 0.39 | 0.33 | 0.289 | 0.18 | 0.212 | 0.184 | 0.202 | 0.187 | 0.74 | 1.17 | 1.01 | 0.927 | 0.725 |  | 
LK-2 | 1.06 | 1.03 | 1.02 | 1.56 | 0.554 | 0.833 | 0.933 | 0.776 | 0.773 | 0.631 | 0.515 | 0.726 | 0.547 | 0.916 |  | 0.776 | 0.745 | 0.625 |  | 
LOU-NH91 | 0.63 | 0.637 | 0.635 | 0.583 | 0.821 | 0.908 | 0.864 | 0.795 | 0.778 | 0.732 | 0.807 | 0.766 | 0.818 | 0.839 | 0.789 | 0.836 | 0.711 | 0.705 | 0.616 | 0.523
LU99A | 0.503 | 0.576 | 0.543 | 0.646 | 0.248 | 0.242 | 0.277 | 0.236 | 0.547 | 0.463 | 0.534 | 0.541 | 0.511 | 0.879 | 0.987 | 0.885 | 1.04 | 1.04 |  | 
LXF-289 | 1.09 | 1.01 | 1.08 | 1.03 | 1.16 | 0.994 | 1.1 | 1.16 | 0.703 | 0.644 | 0.683 | 0.684 | 0.701 | 0.899 | 0.831 | 0.921 | 0.869 | 0.888 | 0.921 | 0.717
NCI-H23 | 0.586 | 0.572 | 0.634 | 0.592 | 0.248 | 0.249 | 0.223 | 0.177 | 0.45 | 0.373 | 0.433 | 0.405 | 0.368 | 1.22 | 1.1 | 1.15 | 1.01 | 1.28 | 0.466 | 0.191
NCI-H322M | 0.777 | 0.651 | 0.802 | 0.87 | 0.74 | 0.715 | 0.723 | 0.559 | 0.577 | 0.458 | 0.48 | 0.467 | 0.486 | 0.658 | 0.603 | 0.591 | 0.566 | 0.652 | 0.581 | 0.468
NCI-H358 | 0.895 | 0.958 | 0.87 | 0.687 | 0.628 | 0.559 | 0.459 | 0.555 | 0.137 | 0.13 | 0.144 | 0.125 | 0.14 | 0.46 | 0.401 | 0.437 | 0.374 | 0.469 | 0.566 | 0.252
NCI-H460 | 0.529 | 0.57 | 0.384 | 0.305 | 0.456 | 0.343 | 0.257 | 0.21 | 0.165 | 0.177 | 0.188 | 0.297 | 0.253 | 1.15 | 0.999 | 0.809 | 0.953 | 1.35 |  | 
NCI-H520 | 1.02 | 1.24 | 0.698 | 0.842 | 0.319 | 0.286 | 0.317 | 0.292 | 0.704 | 0.542 | 0.733 | 0.541 | 0.686 | 0.902 | 0.778 | 0.771 | 0.751 | 0.785 | 0.472 | 0.301
NCI-H596 | 0.373 | 0.452 | 0.492 | 0.443 | 0.634 | 0.589 | 0.679 | 0.513 | 0.881 | 0.625 | 0.835 | 0.8 | 0.895 | 1.11 | 0.935 | 1.03 | 0.887 | 1.14 | 0.532 | 0.492
NCI-H647 | 1.07 | 1.06 | 0.992 | 0.736 | 0.531 | 0.44 | 0.531 | 0.492 | 0.587 | 0.484 | 0.49 | 0.407 | 0.506 | 1.07 | 1.09 | 1.29 | 1.09 | 1.41 |  | 0.217
NCI-H661 | 0.528 | 0.552 | 0.623 | 0.73 | 0.777 | 0.882 | 0.656 | 0.669 | 0.594 | 0.5 | 0.578 | 0.556 | 0.583 | 0.608 | 0.522 | 0.359 | 0.481 | 0.534 | 0.63 | 0.601
NCI-H727 | 0.55 | 0.533 | 0.512 | 0.492 | 0.71 | 0.843 | 0.68 | 0.597 | 0.375 | 0.369 | 0.402 | 0.377 | 0.414 | 1.05 | 0.952 | 0.71 | 0.867 | 0.953 | 0.415 | 0.583
